Results published in patent US10724055B2, “Methods for sustaining the viability of microorganisms during a cessation of syngas flow and processes for storage and reactivation of microorganisms” (Synata Bio, Inc., priority 2015, dated 2020).

Tests used:
Experiment in all cases: Sustaining microorganisms with formate moiety during cessation of syngas feed, recovery on syngas resumption
Format in all cases: cell-based
[1] = system: Clostridium autoethanogenum
Description: (§1) A stirred, 10 liter, continuous fermenter is used under anaerobic bioconversion conditions with a feed gas comprising about 63.3 volume percent hydrogen; 20.5 volume percent carbon monoxide; 6.8 volume percent carbon dioxide; 8.2 volume percent methane and 1.2 volume percent nitrogen. During steady state operation, the gas feed is supplied at about 280 to 290 […] (measured at atmospheric pressure and 25° C.) and a media feed is provided at about 200 milliliters per hour. The media feed is an aqueous solution containing:
(§2) An aqueous solution of about 60 millimoles of sodium metabisulfite is separately added at a rate of 0.6 milliliters per hour. The fermenter is maintained at about 37° C. at a pH of about 5.0. The stirring rate is approximately 600 revolutions per minute.
In each example, the fermentation, using the microorganism specified in Table 1, is operated to achieve stable, steady-state conditions. The flow of syngas is then stopped. […] After a predetermined period, the addition of formate moiety is stopped, the nitrogen sweep gas is stopped and the syngas is resumed at a rate that matches the uptake capacity of the microbial population. The stirring is increased to about 600 rpm, and the flow rates of the media feed and metabisulfite feed are resumed to the levels existing prior to the cessation of the syngas feed.

[2] = system: Clostridium autoethanogenum; settings: Example 2; formate feed 3.5 mole % of electrons; outage 6 hrs; media feed 10%; Na2S 20 mg/hr; argon sweep gas
Clostridium radsdalei = settings: Example 3; formate feed 5 mole % of electrons; outage 12 hrs; no media or sulfur feed
Description: as §1, §2
(§3) In each example, the fermentation, using the microorganism specified in Table 1, is operated to achieve stable, steady-state conditions. The flow of syngas is then stopped. At the time of stoppage of syngas feed, the fermenter is operated in batch mode (no aqueous stream draw from the fermenter), nitrogen gas at about 15 milliliters per minute (atmospheric pressure and 25° C.) is fed to sweep the head space of the fermenter, and the stirring rate is reduced to about 100 rpm. After a predetermined period, the addition of formate moiety is stopped, the nitrogen sweep gas is stopped and the syngas is resumed at a rate that matches the uptake capacity of the microbial population. The stirring is increased to about 600 rpm, and the flow rates of the media feed and metabisulfite feed are resumed to the levels existing prior to the cessation of the syngas feed.

Clostridium coskatii = settings: no media or sulfur feed
Description: as §1, §2, §3

[3] = Example 1, formate feed 3.5 mole % of electrons prior to outage, syngas outage 6 hrs, media feed 10%, Na2S 20 mg/hr, nitrogen sweep
[4] = Example 8, formate feed 3.5 mole % of electrons, outage 6 hrs, no media or sulfur feed
[5] = Example 4, formate feed 3.5 mole % of electrons, outage 6 hrs
[6] = Example 5, formate feed 3.5 mole % of electrons, outage 24 hrs
[7] = Example 6, formate feed 15 mole % of electrons, outage 24 hrs
[8] = Example 9, formate feed 10 mole % of electrons, outage 6 hrs, no media or sulfur feed
[9] = Example 10, formate feed 10 mole % of electrons, outage 24 hrs, no media or sulfur feed

O=C[O-].[Na+] [Sodium salt]
Yes: CO uptake recovery [1, 3] | H2 uptake recovery [1, 3] | H2 uptake recovery ([1]; Example 2, formate feed 3.5 mole % of electrons, outage 6 hrs, media feed 10%, Na2S 20 mg/hr, argon sweep gas) | CO uptake recovery [1, 4] | H2 uptake recovery [1, 4] | CO uptake recovery [2] | CO uptake recovery (Clostridium radsdalei) | H2 uptake recovery (Clostridium radsdalei)

N.O=CO [NH4^+ salt]
Yes: CO uptake recovery (Clostridium coskatii; [5]) | H2 uptake recovery (Clostridium coskatii; [5]) | CO uptake recovery (Clostridium coskatii; [6]) | H2 uptake recovery (Clostridium coskatii; [6]) | CO uptake recovery (Clostridium coskatii; [7]) | H2 uptake recovery (Clostridium coskatii; [7])

O=CO [Formic acid]
Yes: CO uptake recovery [1, 8] | H2 uptake recovery [1, 8] | CO uptake recovery [1, 9] | H2 uptake recovery [1, 9]
